Tests used:
plasma protein [1] = assay: Plasma protein binding rate test, cynomolgus monkey (equilibrium dialysis); assay type: in vitro ADME; conditions: 37° C., 4 hours
Text: (§1) The sample was thoroughly mixed.

[2] = In vivo pharmacokinetic study in cynomolgus monkeys; parameters: species or system cynomolgus monkey; conditions: male cynomolgus monkeys
[3] = In vivo pharmacokinetics study in rats; parameters: species or system SD rat; conditions: male SD rats, oral 2 mg/kg
plasma protein [4] = assay: Plasma protein binding rate test, SD rat (equilibrium dialysis); assay type: in vitro ADME; conditions: 37° C., 4 hours
Text: as §1

plasma protein [5] = assay: Plasma protein binding rate test, human (equilibrium dialysis); assay type: in vitro ADME; conditions: 37° C., 4 hours
Text: as §1

[6] = Plasma protein binding rate test, SD rat (equilibrium dialysis); assay type: in vitro ADME; conditions: 37° C., read-out: Plasma protein binding rate (%) in SD rats (converted)
Text: as §1

[7] = In vitro liver microsome metabolic stability study; assay type: in vitro ADME; conditions: human liver microsomes 0.5 mg/mL, compound 1 μM, 37° C., up to 60 minutes
Protocol: Stock solution: 10 mM in DMSO.
Only 54 μL of microsomal working solution, 6 μL of NADPH regeneration system working solution, and 180 μL of stop solution were added to the blank plate.
LC-MS/MS analysis was performed.

MDR1-MDCKII cells = assay: Permeability test in MDR1-MDCKII monolayer cell model; assay type: in vitro ADME; conditions: 2 μM, pH 7.40, 2.5 hours, 37±1° C.
Protocol: Experimental objective: The permeability and efflux ratio of the compound of the present disclosure were determined using the MDR1-MDCKII monolayer cell model to assess its membrane permeability and potential for P-gp-mediated efflux transport.
Experimental protocol: MDR1-MDCKII cells (obtained from the Netherlands Cancer Institute) were seeded in 96-well plates (obtained from Corning) at a cell density of 3.33×10^5 cells/mL and cultured for 4 to 7 days to form confluent cell monolayers. Hank's balanced salt solution containing 10 mM HEPES (pH 7.40) was used as the transport buffer. The test compound was evaluated for bidirectional transport at a concentration of 2 μM, with the DMSO concentration in the incubation system maintained below 1%. After adding the samples, the cell plate was incubated at 37±1° C., 5% CO2, and saturated humidity for 2.5 hours. All samples were quantitatively analyzed using the LC-MS/MS method. The apparent permeability coefficient (Papp, cm/s) and efflux ratio (ER) were calculated using the following formula. Apparent permeability coefficient (Papp, cm/s) was calculated using the following formula: Papp=(dCr/dt)×Vr/(A×C0). Herein, dCr/dt represents the cumulative concentration of the compound at the receiving end per unit time (μM/s); Vr is the volume of the solution at the receiving end (with solution volumes at the apical and basolateral ends being 0.075 mL and 0.250 mL, respectively); A is the relative surface area of the cell monolayer (0.143 cm^2); C0 is the initial concentration of the test substance at the dosing end (μM) or the peak area ratio of the reference substance. The efflux ratio was calculated using the following formula: ER=Papp(BA)/Papp(AB).

Row | SMILES | Plasma protein binding rate (%) in cynomolgus monkeys (plasma protein [1]) | T1/2 ([2]; oral 1 mg/kg) | AUC0-24 h ([2]; oral 1 mg/kg, plasma) | T1/2 [3] | AUC0-24 h ([3]; plasma) | Plasma protein binding rate (%) in SD rats (plasma protein [4]) | Human plasma protein binding rate (%) (plasma protein [5]) | fraction unbound at 4 h [6] | Intrinsic hepatic clearance CLint(liver) [7] | Apparent permeability coefficient (Papp (AB)) (MDR1-MDCKII cells) | F ([2]; oral 3 mg/kg) | T1/2 ([2]; oral 3 mg/kg) | AUC0-24 h ([2]; oral 3 mg/kg, plasma) | Cmax ([2]; oral 3 mg/kg, plasma)
1 | CCC(=O)N[C@@H]1CCCc2c(-c3cc4c(s3)N(C)C(=O)CC4)cncc21 (single isomer, unassigned) [Compound 017] | 78.1% | 5.30 h | 7.292 µM·h | 1.34 h | 8.129 µM·h | 94.9% | 82.7% |  |  |  |  |  |  | 
2 | CCC(=O)N[C@@H]1CCCc2c(-c3cc(F)c4c(ccc(=O)n4C)c3)cncc21 (single isomer, unassigned) [Compound 018] | 79.5% | 5.35 h | 7.586 µM·h |  |  |  | 80.9% | 0.08 | <8.6 mL/min/kg | 24.6 10^-6 cm/s |  |  |  | 
3 | CCC(=O)NC1CCCc2c(-c3cc4ccc(=O)n(C)c4cc3F)cncc21 (single isomer, unassigned) [Compound 019] | 75.2% |  |  |  |  | 87.1% | 76.2% |  |  |  | 113% | 4.65 h | 23.864 µM·h | 3.79 µM

Reference: patent US20260317314A1, “NITROGEN-CONTAINING HETEROCYCLIC COMPOUND AND USE THEREOF” (JIANGSU DEYUAN PHARMACEUTICAL CO.,LTD., priority 2023, published 2026)
